Measurements taken from US9040712B2, “Thiadiazole analogs thereof and methods for treating SMN-deficiency-related-conditions” (NOVARTIS AG, priority 2013, dated 2015).
pEC50: −log10 of the molar value. Where a name gives a salt, the structure may show the parent alone.

Test system: SMN protein
Assay: cellular SMN ELISA (SMN protein elevation)
Assay type: cell-based
Settings: myoblast cell line derived from SMNdelta7 mouse model; 24 hours compound treatment; concentration range 100 pM-10 uM
In short: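 Myoblasts derived from the SMNdelta7 mouse model, 3000 cells/well, treated with compound (100 pM–10 uM) for 24 h, then lysed in modified RIPA buffer. SMN protein quantified by sandwich ELISA (anti-SMN mAb capture, rabbit polyclonal detection, HRP/TMB, 450 nm). Results given as fold activation over DMSO and EC50.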

SMILES | pEC50 | SMN Activity Fold (fold activation over DMSO control)
COc1cc(-c2cnn(C)c2)ccc1-c1nnc(N2CC3(CCCNC3)C2)s1 [Example 85, 2-(2-methoxy-4-(1-methyl-1H-pyrazol-4-yl)phenyl)-5-(2,6-diazaspiro[3.5]nonan-2-yl)-1,3,4-thiadiazole] | 6.55 | 2.22 fold
COc1cc(-c2cnn(C)c2)ccc1-c1nnc(N2CC3(CCNCC3)C2)s1 [Example 86, 2-(2-methoxy-4-(1-methyl-1H-pyrazol-4-yl)phenyl)-5-(2,7-diazaspiro[3.5]nonan-2-yl)-1,3,4-thiadiazole] | 6.82 | 2.33 fold
CN(c1nnc(-c2ccc(-n3cccn3)cc2O)s1)C1CC(C)(C)NC(C)(C)C1 [Example 87, 2-(5-(methyl(2,2,6,6-tetramethylpiperidin-4-yl)amino)-1,3,4-thiadiazol-2-yl)-5-(1H-pyrazol-1-yl)phenol] | 6.77 | 2.76 fold
CN(c1nnc(-c2ccc(-c3ccc(=O)[nH]c3)cc2Cl)s1)C1CC(C)(C)NC(C)(C)C1 [Example 88, 5-(3-chloro-4-(5-(methyl(2,2,6,6-tetramethylpiperidin-4-yl)amino)-1,3,4-thiadiazol-2-yl)phenyl)pyridin-2(1H)-one] | 6.80 | 2.22 fold
CNc1ccn(-c2ccc(-c3nnc(N(C)C4CC(C)(C)NC(C)(C)C4)s3)c(O)c2)n1 [Example 89, 2-(5-(methyl(2,2,6,6-tetramethylpiperidin-4-yl)amino)-1,3,4-thiadiazol-2-yl)-5-(3-(methylamino)-1H-pyrazol-1-yl)phenol] | 6.97 | 2.85 fold
CN(c1nnc(-c2c(O)cc(-c3cn[nH]c3)cc2F)s1)C1CC(C)(C)NC(C)(C)C1 [Example 90, 3-fluoro-2-(5-(methyl(2,2,6,6-tetramethylpiperidin-4-yl)amino)-1,3,4-thiadiazol-2-yl)-5-(1H-pyrazol-4-yl)phenol] | 8.22 | 2.57 fold
CN(c1nnc(-c2c(O)cc(-c3cn[nH]c3)c(F)c2F)s1)C1CC(C)(C)NC(C)(C)C1 [Example 91, 3,4-difluoro-2-(5-(methyl(2,2,6,6-tetramethylpiperidin-4-yl)amino)-1,3,4-thiadiazol-2-yl)-5-(1H-pyrazol-4-yl)phenol] |  | 2.67 fold
CN(c1nnc(-c2cc3c(cc2O)C(=O)CC3)s1)C1CC(C)(C)NC(C)(C)C1 [Example 92, 6-hydroxy-5-(5-(methyl(2,2,6,6-tetramethylpiperidin-4-yl)amino)-1,3,4-thiadiazol-2-yl)-2,3-dihydro-1H-inden-1-one] | 7.04 | 2.50 fold
CN(c1nnc(-c2ccc(-c3cn[nH]c3)cc2O)s1)C1CC(C)(C)NC(C)(C)C1 [Example 93, 2-(5-(methyl(2,2,6,6-tetramethylpiperidin-4-yl)amino)-1,3,4-thiadiazol-2-yl)-5-(1H-pyrazol-4-yl)phenol] | 6.39 | 2.47 fold
Cn1cc(-c2ccc(-c3nnc(N4CC5(CCCNC5)C4)s3)c(O)c2)cn1 [Example 94, 2-(5-(2,6-diazaspiro[3.5]nonan-2-yl)-1,3,4-thiadiazol-2-yl)-5-(1-methyl-1H-pyrazol-4-yl)phenol] | 6.81 | 2.59 fold
Cn1cc(-c2ccc(-c3nnc(N4CC5(CCNCC5)C4)s3)c(O)c2)cn1 [Example 95, 2-(5-(2,7-diazaspiro[3.5]nonan-2-yl)-1,3,4-thiadiazol-2-yl)-5-(1-methyl-1H-pyrazol-4-yl)phenol] | 7.28 | 2.44 fold
Oc1cc(-c2cn[nH]c2)cc(F)c1-c1nnc(N2C[C@H]3CNC[C@H]3C2)s1 [Example 96, 3-fluoro-2-(5-((3aR,6aS)-hexahydropyrrolo[3,4-c]pyrrol-2(1H)-yl)-1,3,4-thiadiazol-2-yl)-5-(1H-pyrazol-4-yl)phenol•Di-hydrochloride salt] | 8.05 | 2.85 fold
CN(c1nnc(-c2c(O)cc(-c3cn[nH]c3)cc2Cl)s1)C1CC(C)(C)NC(C)(C)C1 [Example 97, 3-chloro-2-(5-(methyl(2,2,6,6-tetramethylpiperidin-4-yl)amino)-1,3,4-thiadiazol-2-yl)-5-(1H-pyrazol-4-yl)phenol] |  | 2.45 fold
COc1cc(-n2cccn2)ccc1-c1nnc(CC2CC(C)(C)NC(C)(C)C2)s1 [Example 98, 2-(2-methoxy-4-(1H-pyrazol-1-yl)phenyl)-5-((2,2,6,6-tetramethylpiperidin-4-yl)methyl)-1,3,4-thiadiazole] | 6.09 | 2.19 fold
COc1c(-c2nnc(N(C)C3CC(C)(C)NC(C)(C)C3)s2)c(=O)n(C)c2ccccc12 [Example 101, 4-methoxy-1-methyl-3-(5-(methyl(2,2,6,6-tetramethylpiperidin-4-yl)amino)-1,3,4-thiadiazol-2-yl)quinolin-2(1H)-one] | 6.13 | 2.51 fold
CN(c1nnc(-c2c(O)c3ccccc3n(C)c2=O)s1)C1CC(C)(C)NC(C)(C)C1 [Example 102, 4-hydroxy-1-methyl-3-(5-(methyl(2,2,6,6-tetramethylpiperidin-4-yl)amino)-1,3,4-thiadiazol-2-yl)quinolin-2(1H)-one] | 7.62 | 2.71 fold
CN(c1nnc(-c2cc3ccccc3[nH]c2=O)s1)C1CC(C)(C)NC(C)(C)C1 [Example 103, 3-(5-(methyl(2,2,6,6-tetramethylpiperidin-4-yl)amino)-1,3,4-thiadiazol-2-yl)quinolin-2(1H)-one] | 6.79 | 2.47 fold
CN(c1nnc(-c2cc3ccccc3n(C)c2=O)s1)C1CC(C)(C)NC(C)(C)C1 [Example 104, 1-methyl-3-(5-(methyl(2,2,6,6-tetramethylpiperidin-4-yl)amino)-1,3,4-thiadiazol-2-yl)quinolin-2(1H)-one] | 7.00 | 2.76 fold
Clc1cc(-c2cn[nH]c2)ccc1-c1nnc(N2C[C@H]3CNC[C@H]3C2)s1 [Example 105, 2-(2-chloro-4-(1H-pyrazol-4-yl)phenyl)-5-((3aR,6aS)-hexahydropyrrolo[3,4-c]pyrrol-2(1H)-yl)-1,3,4-thiadiazole Hydrochloride Salt] | 6.74 | 2.21 fold
Clc1cc(-c2cn[nH]c2)ccc1-c1nnc(N2CCC3(CCCNC3)C2)s1 (centres unmarked) [Example 106, 2-(2-chloro-4-(1H-pyrazol-4-yl)phenyl)-5-(2,7-diazaspiro[4.5]decan-2-yl)-1,3,4-thiadiazole•Hydrochloride Salt] | 5.78 | 2.50 fold
OC[C@H]1CN(c2nnc(-c3ccc(-c4cn[nH]c4)cc3Cl)s2)CCN1 [Example 107, (R)-(4-(5-(2-chloro-4-(1H-pyrazol-4-yl)phenyl)-1,3,4-thiadiazol-2-yl)piperazin-2-yl)methanol•Hydrochloride Salt] | 5.34 | 2.06 fold
CN(c1nnc(-c2cc3cc(C#N)ccc3s2)s1)C1CC(C)(C)NC(C)(C)C1 [Example 108, 2-(5-(methyl(2,2,6,6-tetramethylpiperidin-4-yl)amino)-1,3,4-thiadiazol-2-yl)benzo[b]thiophene-5-carbonitrile] | 6.27 | 2.72 fold
CN(c1nnc(-c2sc3ccccc3c2Cl)s1)C1CC(C)(C)NC(C)(C)C1 [Example 109, 5-(3-chlorobenzo[b]thiophen-2-yl)-N-methyl-N-(2,2,6,6-tetramethylpiperidin-4-yl)-1,3,4-thiadiazol-2-amine] | 6.27 | 2.75 fold
